Results taken from US9708602B2, “Screening for inhibitors of ribosome biogenesis” (priority 2013, dated 2017).

Key:
[1] = system: ribosomal subunits of MCrg* cells; experiment: Sucrose density gradient ribosome profiles (A254 and fluorescence of fractions) of antibiotic treated MCrg* cells; assay type: cell-based, E. coli; settings: for 30S peak region in A254 ribosome profile / 50S peak in A254 ribosome profile: cells cultured with antibiotic in LB medium at 25° C. for 3 hours, 10-25% sucrose gradient; for green (mAzami, large subunit) fluorescence in overlay of A254 and fluorescence profiles: sucrose gradient fractions, micro plate reader
Method: (§1) Whole-cell analyses (A-B): MCrg* cells were cultured in at 25° C. in M9 medium for 7 hours in the absence and presence of antibiotics, as indicated. Samples were taken every hour. (A) OD600 values were determined and (B) mAzami and mCherry fluorescence emission were detected and ratios were calculated. Fluorescence ratios of MCrg* were normalized to 1. Exemplary growth curves are given and fluorescence ratios are means from three independent experiments; error bars show s.d. Analyses of isolated ribosomal particles (C-H and J-M): Sucrose density gradient (10-25%) centrifugation profiles from (C) control cells with no antibiotic (none), (D) chloramphenicol (Cam), (E) erythromycin (Ery), (F) kanamycin (Kan) and (G) neomycin (Neo) treated cells. Sucrose gradient fractions from (C) to (G) were analyzed for fluorescence by a micro plate reader. A254 profiles and fluorescence bar charts were superimposed for (H) control cells with no antibiotic (none), (J) chloramphenicol (Cam), (K) erythromycin (Ery), (L) kanamycin (kan) and (M) neomycin (Neo) treated cells. Cells in presence and absence of antibiotics were cultured in LB medium at 25° C. for 3 hours before subsequent polysome analysis. Left shifted peaks of the large subunit are indicated by horizontal arrows, abnormal portions of the small subunit by vertical arrows; Bars with black lines: normalized mCherry fluorescence; Black bars: normalized mAzami fluorescence. Fluorescence was normalized to the first polysome peak (“disome”) where subunits are present in 1:1 ratio.
(§2) Using MCrg*, it was investigated, whether treatment of cells with ribosome targeting antibiotics results in assembly defects of both ribosomal subunits. The antibiotics tested were chloramphenicol, erythromycin and neomycin, which are known to cause assembly defects of both ribosomal subunits, and kanamycin, which was so far not investigated for its potential to cause ribosome assembly defects. MCrg* cells were cultured in M9 medium for seven hours in the absence or presence of chloramphenicol (7 μg/ml), erythromycin (100 μg/ml), kanamycin (7 μg/ml) or neomycin (7 μg/ml). […] Treatment with chloramphenicol, by contrast, led to an increased fluorescence ratio, with a maximum of 1.20 after 7 hours. […] This hypothesis was tested by analyzing ribosome profiles obtained from MCrg* cells that grew in the presence of the antibiotics or without (FIG. 15C-G). […] The 70S peak and the polysomes (not shown) are reduced in intensity since no chloramphenicol was added prior to harvesting to prevent 70S run off.
When focusing on the overlay diagrams (combining A254 and fluorescence read outs) (FIG. 15H, J-M), ribosome profiles from non treated cells are basically congruent (FIG. 15H). […] These peaks of green fluorescence presumably represent defective assembly intermediates of the large subunit that are caused by all the antibiotics used in this study, but to different extend. […] To analyze eventual defects of the small subunit in more detail, the red fluorescence profiles were aligned and the one derived from non treated cells was compared with all the others obtained from antibiotic treated cells. […] A more thorough analysis including quantitation of the 16S and 23S rRNA within the sucrose fractions confirmed the presence of assembly intermediates.
E. coli cells were inoculated from stationary cultures and incubated until mid-logarithmic phase (OD600=0.6-0.8). In order to record polysome profiles, cells were sedimented, resuspended and lysed. After centrifugation, lysates of 10 A260 units were loaded onto 5-45% sucrose gradients for polysome profiles or 10-40% gradients for subunit separation. Ultracentrifugation was performed at 41.000 rpm (3 h; polysome profiles) or 23.000 rpm (16 h, subunit separation). Ribosomal components in the gradients were analyzed by recording the A254 values and collecting 200 μl and 50 μl fractions, respectively, that were later examined in 96-well plates on fluorescence by using a plate reader.

[2] = system: MCrg* cells; experiment: Probing MCrg* with ribosome-targeting antibiotics: whole-cell growth and mAzami/mCherry fluorescence ratio; assay type: cell-based, E. coli
Method: as §1, §2

[3] = system: E. coli MC4100 and MC-RG1 cells; experiment: Detection of ribosome assembly defects: growth (A650) and EGFP/mCherry fluorescence time course in 96-well plates; assay type: cell-based; settings: 30° C., 96-well plate
Excerpt: Monitoring biogenesis and assembly of ribosomal subunits also allows the detection of abnormalities in ribosome biogenesis and assembly processes. […] Chloramphenicol primarily binds to the large subunit and thereby inhibits the peptidyl transfer reaction. Alongside a resulting shut-down of protein synthesis, accumulating precursor particles of both ribosomal subunits have been observed. Therefore, treatment of cells with chloramphenicol causes precursor accumulation and assembly defects of ribosomal subunits. E. coli MC4100 and MC-RG1 cells were transferred to 96-well plates and incubated at 30° C. in a plate reader. After one hour, wild-type and reporter cells were treated with increasing amounts of chloramphenicol and incubation was continued for another six more hours. A650 values, EGFP and mCherry specific fluorescence intensities were automatically detected. In the absence of chloramphenicol, the growth curve of the reporter strain reached a maximum A650 of 0.5. […] In vivo fluorescence recordings of the E. coli MC4100rp/S-egfp,rpsB-mcherry-ΔygdP cells growing in 96-well plates were performed and fluorescent signals measured. EGFP/mCherry fluorescence intensity ratios differed clearly when comparing MC4100rp/S-egfp,rpsB-mcherry (RN55b) with MC4100rplS-egfp,rpsB-mcherry-ΔygdP reporter strains. […] The overall decreased EGFP/mCherry fluorescence ratio values of the knock-out strain compared to the RN55b reporter strain are caused by proportional lower EGFP fluorescence intensities. In summary, fluorescence recordings of reporter strains are suitable to detect changes in the level of ribosomal subunits, e.g. due to biogenesis defects.
Cells grown to stationary phase were diluted to an OD600 of 0.05 and transferred into 96-well plates, such that each well contained an initial volume of 100 μl. […] Cells were further incubated in the plate reader for several hours and fluorescence as well as A650 data were collected every 10 minutes. Mean values were calculated and MC4100 fluorescence background values were subtracted from the reporter strain values.

Compound	30S peak region in A254 ribosome profile [1]	50S peak in A254 ribosome profile [1]	green (mAzami, large subunit) fluorescence in overlay of A254 and fluorescence profiles [1]	normalized fluorescence ratio (mAzami/mCherry) ([2]; erythromycin 100 μg/ml, after 5 hours, untreated MCrg* normalized to 1)	cell growth (OD600) ([2]; M9 medium, seven hours, 25° C., chloramphenicol 7 μg/ml, erythromycin 100 μg/ml, kanamycin 7 μg/ml, neomycin 7 μg/ml)	normalized fluorescence ratio (mAzami/mCherry), maximum ([2]; chloramphenicol 7 μg/ml, after 7 hours, untreated MCrg* normalized to 1)	concentration above which cells did not grow any further ([3]; added after one hour, six more hours incubation)	cell growth (A650) ([3]; increasing amounts added after one hour, six more hours incubation)	EGFP and mCherry fluorescence ([3]; increasing concentrations)	change in the fluorescence ratio (mAzami/mCherry) ([2]; 7 μg/ml, seven hours time course)
CC[C@H]1OC(=O)[C@H](C)[C@@H](O[C@H]2C[C@@](C)(OC)[C@@H](O)[C@H](C)O2)[C@H](C)[C@@H](O[C@@H]2O[C@H](C)C[C@H](N(C)C)[C@H]2O)[C@](C)(O)C[C@@H](C)C(=O)[C@H](C)[C@@H](O)[C@]1(C)O [erythromycin]	30S peak had a shoulder on the left	reduced and left shifted 50S peaks	portion of green fluorescence within the region of the 30S peak	0.95						
O=C(N[C@H](CO)[C@H](O)c1ccc([N+](=O)[O-])cc1)C(Cl)Cl [chloramphenicol]	additional peak (left-lateral of 30S)	reduced and left shifted 50S peaks	portion of green fluorescence within the region of the 30S peak		strongest growth defects	1.20	higher than 15.5 μM	dosedependent reduction of cell growth	decreased with increasing concentrations	
neomycin	additional peak on the left of the 30S peak	slight reduction and left shift of the 50S peak	green fluorescent peaks of weaker intensity but at similar positions within the profile							did not show a significant change in the fluorescence ratio
